Source: ChEMBL document CHEMBL1145442, “Multistructure 3D-QSAR studies on a series of conformationally constrained butyrophenones docked into a new homology model of the 5-HT2A receptor” (J Med Chem, 2007)

biological target: 5-hydroxytryptamine receptor 2A (Rattus norvegicus, UniProt P14842); assay: Binding affinity at rat 5HT2A receptor
Sequence (P14842 whole entry): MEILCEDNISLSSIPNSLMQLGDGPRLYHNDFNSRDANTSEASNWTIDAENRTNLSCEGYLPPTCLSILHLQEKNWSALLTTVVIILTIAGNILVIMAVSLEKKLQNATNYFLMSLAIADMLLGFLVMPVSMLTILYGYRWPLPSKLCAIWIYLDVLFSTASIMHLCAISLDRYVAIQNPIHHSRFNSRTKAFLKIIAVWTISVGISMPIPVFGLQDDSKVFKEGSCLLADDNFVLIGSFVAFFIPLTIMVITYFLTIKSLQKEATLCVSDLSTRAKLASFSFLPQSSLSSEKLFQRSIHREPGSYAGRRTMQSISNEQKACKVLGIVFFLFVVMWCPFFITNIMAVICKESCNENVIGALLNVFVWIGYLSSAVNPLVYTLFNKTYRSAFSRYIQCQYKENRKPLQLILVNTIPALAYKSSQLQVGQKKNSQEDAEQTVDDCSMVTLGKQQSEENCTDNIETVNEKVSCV

SMILES | Ki
COc1cc2c(cc1OC)C(=O)CC(CN1CCC3(CC1)NC(=O)NC3=O)C2 (stereo unspecified) | > 10000 nM
O=C1c2ccoc2CCC1CCN1CCN(C(=O)c2ccc(F)cc2)CC1 (stereo unspecified) | 2000 nM
O=C1CC(CN2CCC3(CC2)NCNC3=O)Cc2ccccc21 (stereo unspecified) | > 10000 nM

Results, then the compound that gave them:

Ki | SMILES
275 nM | O=C1CC(CN2CCN(CCCC(=O)c3ccc(F)cc3)CC2)C(c2ccccc2)=NN1 (stereo unspecified)
1000 nM | O=C1CC(CN2CCN(CCCCC(=O)c3ccc(F)cc3)CC2)C(c2ccccc2)=NN1 (stereo unspecified)
57.5 nM | O=C1CC(CN2CCC(c3noc4cc(F)ccc34)CC2)C(c2ccccc2)=NN1 (stereo unspecified)
